Laboratory results published in ChEMBL document CHEMBL1177684, “Synthesis, molecular modeling, and biological evaluation of cinnamic acid metronidazole ester derivatives as novel anticancer agents” (Bioorg Med Chem, 2010).

Key:
[1] = biological target: Epidermal growth factor receptor (Homo sapiens, UniProt P00533)
Description: Inhibition of human recombinant His6x-tagged EGFR autophosphorylation expressed in Sf9 cells after 1 hr by ELISA

[2] = biological target: Receptor tyrosine-protein kinase erbB-2 (Homo sapiens, UniProt P04626)
Description: Inhibition of human recombinant His6x-tagged HER2 autophosphorylation expressed in Sf9 cells after 1 hr by ELISA

MCF7 = experiment: Antiproliferative activity against human MCF7 cells after 48 hrs by MTT assay; details: MCF7, 48 h

Sequence of Epidermal growth factor receptor (P00533 whole entry): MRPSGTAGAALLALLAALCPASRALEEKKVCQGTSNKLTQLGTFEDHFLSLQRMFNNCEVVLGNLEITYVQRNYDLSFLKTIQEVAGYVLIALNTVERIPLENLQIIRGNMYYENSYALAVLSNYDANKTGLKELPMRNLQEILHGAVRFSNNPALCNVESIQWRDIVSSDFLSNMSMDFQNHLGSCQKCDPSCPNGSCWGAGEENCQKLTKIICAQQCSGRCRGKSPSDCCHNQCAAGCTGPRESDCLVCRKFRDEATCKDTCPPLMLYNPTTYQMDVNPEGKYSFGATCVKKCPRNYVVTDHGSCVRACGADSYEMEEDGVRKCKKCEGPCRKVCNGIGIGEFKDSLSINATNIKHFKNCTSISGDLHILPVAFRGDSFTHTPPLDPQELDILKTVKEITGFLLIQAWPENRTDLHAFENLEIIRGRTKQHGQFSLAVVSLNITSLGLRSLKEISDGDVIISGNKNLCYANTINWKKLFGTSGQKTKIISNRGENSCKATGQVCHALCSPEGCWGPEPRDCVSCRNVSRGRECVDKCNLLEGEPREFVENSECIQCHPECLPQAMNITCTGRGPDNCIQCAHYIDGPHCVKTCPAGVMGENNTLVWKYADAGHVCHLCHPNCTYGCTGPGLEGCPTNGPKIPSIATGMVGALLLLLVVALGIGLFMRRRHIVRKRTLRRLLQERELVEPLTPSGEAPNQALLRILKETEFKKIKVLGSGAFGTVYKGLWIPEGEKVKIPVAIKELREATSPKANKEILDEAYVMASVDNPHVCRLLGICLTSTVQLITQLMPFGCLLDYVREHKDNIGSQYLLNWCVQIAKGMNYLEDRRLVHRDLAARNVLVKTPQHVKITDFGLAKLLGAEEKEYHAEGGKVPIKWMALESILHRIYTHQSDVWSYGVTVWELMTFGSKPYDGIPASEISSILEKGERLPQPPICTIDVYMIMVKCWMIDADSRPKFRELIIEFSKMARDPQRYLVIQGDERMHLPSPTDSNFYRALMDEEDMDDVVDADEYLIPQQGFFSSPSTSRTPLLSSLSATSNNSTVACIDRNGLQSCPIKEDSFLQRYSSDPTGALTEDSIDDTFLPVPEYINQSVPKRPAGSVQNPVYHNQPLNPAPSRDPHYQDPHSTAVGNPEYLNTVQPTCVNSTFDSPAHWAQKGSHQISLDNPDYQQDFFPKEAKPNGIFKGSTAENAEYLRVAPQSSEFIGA
Sequence of Receptor tyrosine-protein kinase erbB-2 (P04626 whole entry): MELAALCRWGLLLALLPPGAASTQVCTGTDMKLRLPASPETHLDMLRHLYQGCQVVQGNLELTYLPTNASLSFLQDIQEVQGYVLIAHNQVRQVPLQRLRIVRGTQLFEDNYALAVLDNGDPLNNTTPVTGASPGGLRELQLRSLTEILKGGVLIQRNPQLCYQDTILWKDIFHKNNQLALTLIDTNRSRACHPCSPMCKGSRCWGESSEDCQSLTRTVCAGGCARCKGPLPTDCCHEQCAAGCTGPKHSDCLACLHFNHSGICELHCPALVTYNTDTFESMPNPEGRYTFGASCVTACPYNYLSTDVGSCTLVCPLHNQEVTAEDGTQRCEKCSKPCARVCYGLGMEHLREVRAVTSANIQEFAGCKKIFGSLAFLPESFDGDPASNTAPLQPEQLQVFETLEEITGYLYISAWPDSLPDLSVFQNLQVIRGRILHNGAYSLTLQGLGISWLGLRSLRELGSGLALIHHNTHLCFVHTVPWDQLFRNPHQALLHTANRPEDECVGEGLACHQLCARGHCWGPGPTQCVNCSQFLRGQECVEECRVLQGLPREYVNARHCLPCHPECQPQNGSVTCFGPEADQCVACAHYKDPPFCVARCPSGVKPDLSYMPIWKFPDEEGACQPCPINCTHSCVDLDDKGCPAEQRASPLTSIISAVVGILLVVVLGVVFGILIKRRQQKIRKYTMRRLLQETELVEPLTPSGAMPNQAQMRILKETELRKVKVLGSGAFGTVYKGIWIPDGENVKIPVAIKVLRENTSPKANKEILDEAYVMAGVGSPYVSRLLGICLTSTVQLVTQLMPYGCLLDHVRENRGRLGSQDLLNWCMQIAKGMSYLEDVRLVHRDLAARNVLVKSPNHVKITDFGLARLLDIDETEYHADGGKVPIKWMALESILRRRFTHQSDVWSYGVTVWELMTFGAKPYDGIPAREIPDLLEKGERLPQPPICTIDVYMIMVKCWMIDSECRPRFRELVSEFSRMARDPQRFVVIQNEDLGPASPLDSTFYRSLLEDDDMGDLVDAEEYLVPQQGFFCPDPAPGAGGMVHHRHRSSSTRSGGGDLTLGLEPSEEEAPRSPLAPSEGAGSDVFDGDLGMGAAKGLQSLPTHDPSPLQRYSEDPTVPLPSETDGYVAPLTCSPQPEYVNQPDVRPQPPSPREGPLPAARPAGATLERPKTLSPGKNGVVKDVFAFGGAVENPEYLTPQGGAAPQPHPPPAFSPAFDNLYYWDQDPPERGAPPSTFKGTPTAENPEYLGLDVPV

IC50 [1] [µM]	IC50 [2] [µM]	IC50 (MCF7) [µM]	SMILES
20.8	36.5	18	Cc1ncc([N+](=O)[O-])n1CCOC(=O)/C=C/c1ccccc1Cl
26.7	41.3	15	Cc1ncc([N+](=O)[O-])n1CCOC(=O)/C=C/c1ccccc1F
4.12	5.84	3.76	Cc1ncc([N+](=O)[O-])n1CCOC(=O)/C=C/c1ccc(F)cc1
–	3.46	–	Cc1ncc([N+](=O)[O-])n1CCOC(=O)/C=C/c1ccc(OCc2ccccc2)cc1
10.8	14.3	5.49	COc1ccc(/C=C/C(=O)OCCn2c([N+](=O)[O-])cnc2C)cc1
6.82	9.97	4.96	Cc1ncc([N+](=O)[O-])n1CCOC(=O)/C=C/c1ccc(C(C)C)cc1
24.3	44.8	16	Cc1ncc([N+](=O)[O-])n1CCOC(=O)/C=C/c1ccccc1Br
3.24	4.65	2.45	Cc1ncc([N+](=O)[O-])n1CCOC(=O)/C=C/c1ccc(Br)cc1
7.83	10.8	4.41	Cc1ncc([N+](=O)[O-])n1CCOC(=O)/C=C/c1ccccc1
12.4	16.8	5.88	Cc1ncc([N+](=O)[O-])n1CCOC(=O)/C=C/c1cccc(F)c1
3.88	5.03	3.4	Cc1ncc([N+](=O)[O-])n1CCOC(=O)/C=C/c1cccc2ccccc12
8.11	9.65	4.28	Cc1ccc(/C=C/C(=O)OCCn2c([N+](=O)[O-])cnc2C)cc1
3.62	4.77	3.05	Cc1ncc([N+](=O)[O-])n1CCOC(=O)/C=C/c1ccc(Cl)cc1
14.5	19.3	5.68	Cc1ncc([N+](=O)[O-])n1CCOC(=O)/C=C/c1cccc([N+](=O)[O-])c1
32	> 50	20	COc1ccccc1/C=C/C(=O)OCCn1c([N+](=O)[O-])cnc1C
0.62	2.15	0.36	Cc1ncc([N+](=O)[O-])n1CCOC(=O)/C=C/c1ccc(-c2ccccc2)cc1
5.76	9.24	4.1	Cc1ncc([N+](=O)[O-])n1CCOC(=O)/C=C/c1ccc2ccccc2c1
13.9	18.8	5.75	COc1cccc(/C=C/C(=O)OCCn2c([N+](=O)[O-])cnc2C)c1
25	40	17	Cc1ncc([N+](=O)[O-])n1CCOC(=O)/C=C/c1ccccc1[N+](=O)[O-]
